Measurements: paper PMC6566410, “Novel Diamide-Based Benzenesulfonamides as Selective Carbonic Anhydrase IX Inhibitors Endowed with Antitumor Activity: Synthesis, Biological Evaluation and In Silico Insights” (International Journal of Molecular Sciences, 2019)

Tests used:
[1] = system: 786-0; assay: NCI one-dose SRB assay; assay type: cell-based; conditions: Homo sapiens, 786-0 (Renal Cancer), 1.00E-5 Molar, read-out: Growth Percent
Protocol: (§1) First, all diamide-based benzenesulfonamides herein reported 5a–h were screened for their antitumor activity at one dose (10^−5 M) assay against a panel of sixty cancer cell lines through the National Cancer Institute (NCI) Developmental Therapeutic Program (www.dtp.nci.nih.gov), according to US-NCI protocol. The cell growth and cell viability were evaluated using the sulforhodamine B (SRB) colorimetric assay.
(§2) This assay was carried out according to the protocol of the Drug Evaluation Branch, NCI, Bethesda. The cell growth and cell viability were evaluated using the sulforhodamine B (SRB) colorimetric assay, as reported earlier.

[2] = system: A498; assay: NCI one-dose SRB assay; assay type: cell-based; conditions: Homo sapiens, A498 (Renal Cancer), 1.00E-5 Molar, read-out: Growth Percent
Protocol: as §1, §2

[3] = system: DU-145; assay: NCI one-dose SRB assay; assay type: cell-based; conditions: Homo sapiens, DU-145 (Prostate Cancer), 1.00E-5 Molar, read-out: Growth Percent
Protocol: as §1, §2

[4] = system: EKVX; assay: NCI one-dose SRB assay; assay type: cell-based; conditions: Homo sapiens, EKVX (Non-Small Cell Lung Cancer), 1.00E-5 Molar, read-out: Growth Percent
Protocol: as §1, §2

[5] = system: HCT-15; assay: NCI one-dose SRB assay; assay type: cell-based; conditions: Homo sapiens, HCT-15 (Colon Cancer), 1.00E-5 Molar, read-out: Growth Percent
Protocol: as §1, §2

[6] = system: HL-60(TB); assay: NCI one-dose SRB assay; assay type: cell-based; conditions: Homo sapiens, HL-60(TB) (Leukemia), 1.00E-5 Molar, read-out: Growth Percent
Protocol: as §1, §2

[7] = system: HOP-62; assay: NCI one-dose SRB assay; assay type: cell-based; conditions: Homo sapiens, HOP-62 (Non-Small Cell Lung Cancer), 1.00E-5 Molar, read-out: Growth Percent
Protocol: as §1, §2

[8] = system: HS 578T; assay: NCI one-dose SRB assay; assay type: cell-based; conditions: Homo sapiens, HS 578T (Breast Cancer), 1.00E-5 Molar, read-out: Growth Percent
Protocol: as §1, §2

[9] = system: HT29; assay: NCI one-dose SRB assay; assay type: cell-based; conditions: Homo sapiens, HT-29, HT29 (Colon Cancer), 1.00E-5 Molar, read-out: Growth Percent
Protocol: as §1, §2

[10] = system: IGROV1; assay: NCI one-dose SRB assay; assay type: cell-based; conditions: Homo sapiens, IGROV-1, IGROV1 (Ovarian Cancer), 1.00E-5 Molar, read-out: Growth Percent
Protocol: as §1, §2

[11] = system: LOX IMVI; assay: NCI one-dose SRB assay; assay type: cell-based; conditions: Homo sapiens, LOX IMVI (Melanoma), 1.00E-5 Molar, read-out: Growth Percent
Protocol: as §1, §2

[12] = system: MALME-3M; assay: NCI one-dose SRB assay; assay type: cell-based; conditions: Homo sapiens, MALME-3M (Melanoma), 1.00E-5 Molar, read-out: Growth Percent
Protocol: as §1, §2

[13] = system: MDA-MB-435; assay: NCI one-dose SRB assay; assay type: cell-based; conditions: Homo sapiens, MDA-MB-435 (Melanoma), 1.00E-5 Molar, read-out: Growth Percent
Protocol: as §1, §2

[14] = system: MDA-MB-468; assay: NCI one-dose SRB assay; assay type: cell-based; conditions: Homo sapiens, MDA-MB-468 (Breast Cancer), 1.00E-5 Molar, read-out: Growth Percent
Protocol: as §1, §2

[15] = system: NCI-H460; assay: NCI one-dose SRB assay; assay type: cell-based; conditions: Homo sapiens, NCI-H460 (Non-Small Cell Lung Cancer), 1.00E-5 Molar, read-out: Growth Percent
Protocol: as §1, §2

[16] = system: NCI-H522; assay: NCI one-dose SRB assay; assay type: cell-based; conditions: Homo sapiens, NCI-H522 (Non-Small Cell Lung Cancer), 1.00E-5 Molar, read-out: Growth Percent
Protocol: as §1, §2

[17] = system: OVCAR-8; assay: NCI one-dose SRB assay; assay type: cell-based; conditions: Homo sapiens, OVCAR-8 (Ovarian Cancer), 1.00E-5 Molar, read-out: Growth Percent
Protocol: as §1, §2

[18] = system: RXF 393; assay: NCI one-dose SRB assay; assay type: cell-based; conditions: Homo sapiens, RXF 393 (Renal Cancer), 1.00E-5 Molar, read-out: Growth Percent
Protocol: as §1, §2

[19] = system: SF-268; assay: NCI one-dose SRB assay; assay type: cell-based; conditions: Homo sapiens, SF-268 (CNS Cancer), 1.00E-5 Molar, read-out: Growth Percent
Protocol: as §1, §2

[20] = system: SK-MEL-28; assay: NCI one-dose SRB assay; assay type: cell-based; conditions: Homo sapiens, SK-MEL-28 (Melanoma), 1.00E-5 Molar, read-out: Growth Percent
Protocol: as §1, §2

[21] = system: SN12C; assay: NCI one-dose SRB assay; assay type: cell-based; conditions: Homo sapiens, SN12C (Renal Cancer), 1.00E-5 Molar, read-out: Growth Percent
Protocol: as §1, §2

[22] = system: SNB-19; assay: NCI one-dose SRB assay; assay type: cell-based; conditions: Homo sapiens, SNB-19 (CNS Cancer), 1.00E-5 Molar, read-out: Growth Percent
Protocol: as §1, §2

[23] = system: SNB-75; assay: NCI one-dose SRB assay; assay type: cell-based; conditions: Homo sapiens, SNB-75 (CNS Cancer), 1.00E-5 Molar, read-out: Growth Percent
Protocol: as §1, §2

[24] = system: TK-10; assay: NCI one-dose SRB assay; assay type: cell-based; conditions: Homo sapiens, TK-10 (Renal Cancer), 1.00E-5 Molar, read-out: Growth Percent
Protocol: as §1, §2

[25] = system: UACC-257; assay: NCI one-dose SRB assay; assay type: cell-based; conditions: Homo sapiens, UACC-257 (Melanoma), 1.00E-5 Molar, read-out: Growth Percent
Protocol: as §1, §2

[26] = system: UACC-62; assay: NCI one-dose SRB assay; assay type: cell-based; conditions: Homo sapiens, UACC-62 (Melanoma), 1.00E-5 Molar, read-out: Growth Percent
Protocol: as §1, §2

[27] = system: SR; assay: NCI one-dose SRB assay; assay type: cell-based, human; conditions: SR (Leukemia), 1.00E-5 Molar
Protocol: as §1, §2

[28] = molecular target: hCA I (Homo sapiens, UniProt P00915); assay: stopped-flow CO2 hydrase assay
Description: (§3) An Applied Photophysics stopped-flow instrument was used for assaying the CA catalysed CO2 hydration activity, as reported earlier [17]. The inhibition constants were obtained by non-linear least-squares methods using PRISM 3 and the Cheng-Prusoff equation as reported earlier, and represent the mean from at least three different determinations. The four tested CA isofoms were recombinant ones obtained in-house as reported earlier [26, 27, 28, 29].

[29] = molecular target: hCA II (Homo sapiens, UniProt P00918); assay: stopped-flow CO2 hydrase assay
Description: as §3

[30] = molecular target: hCA IX (Homo sapiens, UniProt Q16790); assay: stopped-flow CO2 hydrase assay; conditions: for Selectivity ratio I/IX: KI hCA I / KI hCA IX; for Selectivity ratio II/IX: KI hCA II / KI hCA IX
Description: as §3

[31] = molecular target: hCA XII (Homo sapiens, UniProt O43570); assay: stopped-flow CO2 hydrase assay; conditions: for Selectivity ratio I/XII: KI hCA I / KI hCA XII; for Selectivity ratio II/XII: KI hCA II / KI hCA XII
Chain of hCA XII (O43570 25-354): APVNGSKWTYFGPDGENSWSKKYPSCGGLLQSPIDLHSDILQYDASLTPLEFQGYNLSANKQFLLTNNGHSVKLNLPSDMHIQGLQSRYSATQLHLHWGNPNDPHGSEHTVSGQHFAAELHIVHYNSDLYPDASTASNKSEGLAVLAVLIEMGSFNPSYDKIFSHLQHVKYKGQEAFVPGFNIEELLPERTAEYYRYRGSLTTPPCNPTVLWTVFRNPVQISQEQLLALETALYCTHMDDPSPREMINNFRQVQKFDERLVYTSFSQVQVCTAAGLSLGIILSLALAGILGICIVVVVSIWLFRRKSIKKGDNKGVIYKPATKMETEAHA
Description: as §3

Chain of hCA I (P00915 whole entry): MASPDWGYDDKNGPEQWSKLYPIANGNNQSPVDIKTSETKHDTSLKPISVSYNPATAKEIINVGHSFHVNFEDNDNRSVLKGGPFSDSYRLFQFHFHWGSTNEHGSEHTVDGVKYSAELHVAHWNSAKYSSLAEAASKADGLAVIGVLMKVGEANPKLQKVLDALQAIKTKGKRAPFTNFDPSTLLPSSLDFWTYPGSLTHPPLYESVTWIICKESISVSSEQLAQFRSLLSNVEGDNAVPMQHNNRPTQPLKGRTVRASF

| SMILES | activity at 10 µM [1] [%] | activity at 10 µM [2] [%] | activity at 10 µM [3] [%] | activity at 10 µM [4] [%] | activity at 10 µM [5] [%] | activity at 10 µM [6] [%] | activity at 10 µM [7] [%] | activity at 10 µM [8] [%] | activity at 10 µM [9] [%] | activity at 10 µM [10] [%] | activity at 10 µM [11] [%] | activity at 10 µM [12] [%] | activity at 10 µM [13] [%] | activity at 10 µM [14] [%] | activity at 10 µM [15] [%] | activity at 10 µM [16] [%] | activity at 10 µM [17] [%] | activity at 10 µM [18] [%] | activity at 10 µM [19] [%] | activity at 10 µM [20] [%] | other results |
| --- | --- | --- | --- | --- | --- | --- | --- | --- | --- | --- | --- | --- | --- | --- | --- | --- | --- | --- | --- | --- | --- |
| NS(=O)(=O)c1ccc(NC(=O)C(=Cc2ccc(Cl)cc2)NC(=O)c2ccccc2)cc1 [Compound 5a, N-(1-(4-Chlorophenyl)-3-oxo-3-((4-sulfamoylphenyl)amino)prop-1-en-2-yl)benzamide] | 95.9 | 104 | 107 | 99.5 | 106 | 101 | 91.9 | 101 | 106 | 90.9 | 97 | 96.3 | 98.7 | 101 | 106 | 90.9 | 97.6 | 103 | 96 | 110 | activity at 10 µM [21]: 104%; activity at 10 µM [22]: 103%; activity at 10 µM [23]: 86.3%; activity at 10 µM [24]: 96.6%; activity at 10 µM [25]: 103%; activity at 10 µM [26]: 96.2%; Growth Percent [27]: 96.44%; Ki [28]: 3.96 µM; Ki [29]: 0.0683 µM; Ki [30]: 0.0088 µM; Selectivity ratio I/IX [30]: 449.5; Selectivity ratio II/IX [30]: 7.8; Ki [31]: 0.0161 µM; Selectivity ratio I/XII [31]: 245.7; Selectivity ratio II/XII [31]: 4.2 |
| NS(=O)(=O)c1ccc(NC(=O)C(=Cc2ccc(Cl)cc2Cl)NC(=O)c2ccccc2)cc1 [Compound 5b, N-(1-(2,4-Dichlorophenyl)-3-oxo-3-((4-sulfamoylphenyl)amino)prop-1-en-2-yl)benzamide] | 104 | 95 | 109 | 99.6 | 110 | 84.8 | 95.7 | 89.5 | 103 | 74.9 | 96.2 | 93.2 | 97.7 | 110 | 105 | 80.3 | 101 | 96 | 94.5 | 110 | activity at 10 µM [21]: 94.7%; activity at 10 µM [22]: 95.6%; activity at 10 µM [23]: 81.4%; activity at 10 µM [24]: 104%; activity at 10 µM [25]: 102%; activity at 10 µM [26]: 75%; Growth Percent [27]: 96.62%; Ki [28]: 5.98 µM; Ki [29]: 0.224 µM; Ki [30]: 0.0183 µM; Selectivity ratio I/IX [30]: 326.6; Selectivity ratio II/IX [30]: 12.2; Ki [31]: 0.0105 µM; Selectivity ratio I/XII [31]: 569.2; Selectivity ratio II/XII [31]: 21.3 |
| NS(=O)(=O)c1ccc(NC(=O)C(=Cc2ccc(Br)cc2)NC(=O)c2ccccc2)cc1 [Compound 5c, N-(1-(4-Bromophenyl)-3-oxo-3-((4-sulfamoylphenyl)amino)prop-1-en-2-yl)benzamide] | 96 | 94.5 | 108 | 102 | 92.5 | 96.9 | 104 | 93.9 | 89.1 | 90.2 | 99.7 | 92.2 | 95 | 99.9 | 107 | 87.9 | 102 | 95.8 | 99.6 | 113 | activity at 10 µM [21]: 99.4%; activity at 10 µM [22]: 95.1%; activity at 10 µM [23]: 86.5%; activity at 10 µM [24]: 102%; activity at 10 µM [25]: 105%; activity at 10 µM [26]: 88.1%; Growth Percent [27]: 88.11%; Ki [28]: 2.4 µM; Ki [29]: 0.252 µM; Ki [30]: 0.0335 µM; Selectivity ratio I/IX [30]: 71.6; Selectivity ratio II/IX [30]: 7.5; Ki [31]: 0.0554 µM; Selectivity ratio I/XII [31]: 43.3; Selectivity ratio II/XII [31]: 4.5 |
| Cc1ccc(C=C(NC(=O)c2ccccc2)C(=O)Nc2ccc(S(N)(=O)=O)cc2)o1 [Compound 5h, N-(1-(5-Methylfuran-2-yl)-3-oxo-3-((4-sulfamoylphenyl)amino)prop-1-en-2-yl)benzamide] | 98.7 | 99.8 | 99.9 | 98 | 92.9 | 94.6 | 95.2 | 76.5 | 86.3 | 81 | 94.9 | 93.2 | 99.3 | 98.7 | 101 | 85.7 | 95.5 | 95.5 | 100 | 114 | activity at 10 µM [21]: 98.6%; activity at 10 µM [22]: 96.4%; activity at 10 µM [23]: 81.5%; activity at 10 µM [24]: 112%; activity at 10 µM [25]: 99.4%; activity at 10 µM [26]: 95%; Ki [28]: 8.18 µM; Ki [29]: 0.115 µM; Ki [30]: 0.0083 µM; Selectivity ratio I/IX [30]: 985; Selectivity ratio II/IX [30]: 13.8; Ki [31]: 0.0579 µM; Selectivity ratio I/XII [31]: 141.2; Selectivity ratio II/XII [31]: 2 |
